In ChEMBL document CHEMBL1155237, “Selective inhibitors of the mutant B-Raf pathway: discovery of a potent and orally bioavailable aminoisoquinoline” (J Med Chem, 2009):

Key:
Angiopoietin-1 receptor = Angiopoietin-1 receptor (Homo sapiens, UniProt Q02763); test: Inhibition of Tie2
[1] = Volume of distribution at steady state in Sprague-Dawley rat at 2 mg/kg, iv and 5 mg/kg, po; format: ADME, organism-based; details: in vivo, read-out: Vdss
[2] = Clearance in Sprague-Dawley rat at 2 mg/kg, iv and 5 mg/kg, po; format: ADME, organism-based; details: in vivo
[3] = biological target: Serine/threonine-protein kinase B-raf (Homo sapiens, UniProt P15056, V600E); test: Inhibition of recombinant Braf V600E mutant
[4] = biological target: Tyrosine-protein kinase Lck (Homo sapiens, UniProt P06239); test: Inhibition of LCK
[5] = biological target: Mitogen-activated protein kinase 14 (Homo sapiens, UniProt Q16539); test: Inhibition of p38alpha
[6] = Elimination half life in Sprague-Dawley rat at 2 mg/kg, iv and 5 mg/kg, po; format: ADME, organism-based; details: in vivo, read-out: beta t1/2 (converted)
Mus musculus [7] = test: Inhibition of ERK phosphorylation in human A375 SQ2 cells xenografted CD1 mouse at 100 mg/kg, po bid after 6 hrs; format: functional; details: CD1, A375-SQ2, 6 h
[8] = biological target: Vascular endothelial growth factor receptor 2 (Homo sapiens, UniProt P35968); test: Inhibition of KDR
A-375 [9] = test: Antitumor activity against human A375 SQ2 cells xenografted in CD1 mouse assessed as inhibition of tumor growth at 30 mg/kg, po bid for 14 days; format: functional; details: A-375, 336 h
A-375 [10] = test: Antitumor activity against human A375 SQ2 cells xenografted in CD1 mouse assessed as regression of tumor growth at 100 mg/kg, po bid for 14 days; format: functional
A-375 [11] = test: Antitumor activity against human A375 SQ2 cells xenografted in po dosed CD1 mouse assessed as inhibition of tumor growth administered twice daily for 14 days; format: functional; details: 336 h
[12] = Oral bioavailability in Sprague-Dawley rat at 5 mg/kg; format: ADME, organism-based; details: in vivo
Mus musculus [13] = test: Inhibition of ERK phosphorylation in human A375 SQ2 cells xenografted CD1 mouse at 60 mg/kg, po bid after 6 hrs; format: functional; details: CD1, A375-SQ2, 6 h
Mus musculus [14] = test: Inhibition of ERK phosphorylation in human A375 SQ2 cells xenografted CD1 mouse at 30 mg/kg, po bid after 6 hrs; format: functional; details: CD1, A375-SQ2, 6 h
A-375 [15] = test: Antitumor activity against human A375 SQ2 cells xenografted in CD1 mouse assessed as inhibition of tumor growth at 60 mg/kg, po bid for 14 days; format: functional; details: A375-SQ2, 336 h
Mus musculus [16] = test: Inhibition of ERK phosphorylation in human A375 SQ2 cells xenografted CD1 mouse at 20 mg/kg, po bid after 6 hrs; format: functional; details: CD1, A375-SQ2, 6 h
A-375 [17] = test: Antitumor activity against human A375 SQ2 cells xenografted in CD1 mouse assessed as inhibition of tumor growth at 20 mg/kg, po bid for 14 days; format: functional; parameters: Activity: scale not given: the % may be the effect or the level left; details: for inhibition in vivo at 20 mg/kg: Mus musculus, A375-SQ2, 336 h
Mus musculus [18] = test: Inhibition of ERK phosphorylation in human A375 SQ2 cells xenografted CD1 mouse at 5 mg/kg, po bid after 6 hrs; format: functional; details: CD1, A-375, 6 h
A-375 [19] = test: Antitumor activity against human A375 SQ2 cells xenografted in CD1 mouse assessed as regression of tumor growth at 35 mg/kg, po bid for 14 days; format: functional
A-375 [20] = test: Antitumor activity against human A375 SQ2 cells xenografted in CD1 mouse assessed as inhibition of tumor growth at 5 mg/kg, po bid for 14 days; format: functional; details: A375-SQ2, 336 h
Mus musculus [21] = test: Inhibition of ERK phosphorylation in human A375 SQ2 cells xenografted CD1 mouse at 35 mg/kg, po bid after 6 hrs; format: functional; details: CD1, A375-SQ2, 6 h
[22] = AUC (0 to 24 hrs) in human A375 SQ2 cells xenografted po dosed CD1 mouse administered twice daily for 14 days; format: ADME, organism-based; parameters: time < 24 hr, route oral; details: in vivo
Mus musculus [23] = test: Inhibition of ERK phosphorylation in human A375 SQ2 cells xenografted CD1 mouse at 10 mg/kg, po bid after 6 hrs; format: functional; details: CD1, A375-SQ2, 6 h
A-375 [24] = test: Antitumor activity against human A375 SQ2 cells xenografted in CD1 mouse assessed as inhibition of tumor growth at 10 mg/kg, po bid for 14 days; format: functional; details: A375-SQ2, 336 h
Mus musculus [25] = test: Inhibition of ERK phosphorylation in human A375 SQ2 cells xenografted CD1 mouse at 17.5 mg/kg, po bid after 6 hrs; format: functional; details: CD1, A-375, 6 h
A-375 [26] = test: Antitumor activity against human A375 SQ2 cells xenografted in CD1 mouse assessed as inhibition of tumor growth at 17.5 mg/kg, po bid for 14 days; format: functional; details: A375-SQ2, 336 h

Chain of Mitogen-activated protein kinase 14 (Q16539 whole entry): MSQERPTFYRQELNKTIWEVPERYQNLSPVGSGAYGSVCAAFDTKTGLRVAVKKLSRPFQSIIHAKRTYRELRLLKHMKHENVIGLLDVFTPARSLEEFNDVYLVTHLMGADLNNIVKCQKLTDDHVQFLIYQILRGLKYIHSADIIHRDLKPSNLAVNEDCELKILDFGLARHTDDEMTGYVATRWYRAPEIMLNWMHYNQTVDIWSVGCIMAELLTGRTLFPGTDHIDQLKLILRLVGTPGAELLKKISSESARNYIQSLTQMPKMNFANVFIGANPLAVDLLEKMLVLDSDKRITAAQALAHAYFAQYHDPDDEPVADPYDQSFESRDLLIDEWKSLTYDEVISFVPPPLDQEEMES
Chain of Serine/threonine-protein kinase B-raf (P15056 2-766 V600E limits assumed): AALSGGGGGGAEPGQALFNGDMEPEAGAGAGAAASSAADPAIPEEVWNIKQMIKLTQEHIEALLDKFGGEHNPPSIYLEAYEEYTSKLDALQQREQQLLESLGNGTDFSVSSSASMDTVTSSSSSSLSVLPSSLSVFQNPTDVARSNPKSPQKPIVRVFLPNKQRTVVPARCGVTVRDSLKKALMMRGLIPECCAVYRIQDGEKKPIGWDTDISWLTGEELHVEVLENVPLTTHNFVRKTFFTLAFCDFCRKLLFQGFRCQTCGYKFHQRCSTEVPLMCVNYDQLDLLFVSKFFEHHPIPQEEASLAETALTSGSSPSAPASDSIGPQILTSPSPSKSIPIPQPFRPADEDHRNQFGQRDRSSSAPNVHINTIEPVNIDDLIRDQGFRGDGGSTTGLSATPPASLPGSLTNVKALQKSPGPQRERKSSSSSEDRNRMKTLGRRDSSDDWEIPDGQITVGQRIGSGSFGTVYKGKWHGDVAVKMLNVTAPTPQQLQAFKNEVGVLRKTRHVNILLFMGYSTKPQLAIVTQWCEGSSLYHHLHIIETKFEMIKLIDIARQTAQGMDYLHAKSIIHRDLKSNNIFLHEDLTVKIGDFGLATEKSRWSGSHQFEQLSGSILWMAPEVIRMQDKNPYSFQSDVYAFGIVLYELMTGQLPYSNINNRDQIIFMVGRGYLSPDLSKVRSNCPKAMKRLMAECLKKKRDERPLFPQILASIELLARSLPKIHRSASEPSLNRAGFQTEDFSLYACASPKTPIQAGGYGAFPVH
Chain of Tyrosine-protein kinase Lck (P06239 whole entry): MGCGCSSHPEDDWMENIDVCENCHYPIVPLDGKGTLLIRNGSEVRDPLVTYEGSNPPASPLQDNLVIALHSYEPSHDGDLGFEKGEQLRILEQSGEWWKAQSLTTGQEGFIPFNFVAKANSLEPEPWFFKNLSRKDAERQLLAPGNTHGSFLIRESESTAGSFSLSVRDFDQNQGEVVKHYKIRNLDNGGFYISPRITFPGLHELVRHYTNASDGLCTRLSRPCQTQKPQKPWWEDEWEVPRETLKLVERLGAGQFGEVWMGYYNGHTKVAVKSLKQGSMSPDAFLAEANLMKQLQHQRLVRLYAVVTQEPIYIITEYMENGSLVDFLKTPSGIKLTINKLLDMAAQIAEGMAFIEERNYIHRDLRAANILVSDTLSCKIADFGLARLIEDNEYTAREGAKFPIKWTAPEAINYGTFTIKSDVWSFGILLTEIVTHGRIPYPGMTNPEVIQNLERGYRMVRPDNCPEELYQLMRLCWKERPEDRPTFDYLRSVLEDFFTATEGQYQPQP
Chain of Angiopoietin-1 receptor (Q02763 whole entry): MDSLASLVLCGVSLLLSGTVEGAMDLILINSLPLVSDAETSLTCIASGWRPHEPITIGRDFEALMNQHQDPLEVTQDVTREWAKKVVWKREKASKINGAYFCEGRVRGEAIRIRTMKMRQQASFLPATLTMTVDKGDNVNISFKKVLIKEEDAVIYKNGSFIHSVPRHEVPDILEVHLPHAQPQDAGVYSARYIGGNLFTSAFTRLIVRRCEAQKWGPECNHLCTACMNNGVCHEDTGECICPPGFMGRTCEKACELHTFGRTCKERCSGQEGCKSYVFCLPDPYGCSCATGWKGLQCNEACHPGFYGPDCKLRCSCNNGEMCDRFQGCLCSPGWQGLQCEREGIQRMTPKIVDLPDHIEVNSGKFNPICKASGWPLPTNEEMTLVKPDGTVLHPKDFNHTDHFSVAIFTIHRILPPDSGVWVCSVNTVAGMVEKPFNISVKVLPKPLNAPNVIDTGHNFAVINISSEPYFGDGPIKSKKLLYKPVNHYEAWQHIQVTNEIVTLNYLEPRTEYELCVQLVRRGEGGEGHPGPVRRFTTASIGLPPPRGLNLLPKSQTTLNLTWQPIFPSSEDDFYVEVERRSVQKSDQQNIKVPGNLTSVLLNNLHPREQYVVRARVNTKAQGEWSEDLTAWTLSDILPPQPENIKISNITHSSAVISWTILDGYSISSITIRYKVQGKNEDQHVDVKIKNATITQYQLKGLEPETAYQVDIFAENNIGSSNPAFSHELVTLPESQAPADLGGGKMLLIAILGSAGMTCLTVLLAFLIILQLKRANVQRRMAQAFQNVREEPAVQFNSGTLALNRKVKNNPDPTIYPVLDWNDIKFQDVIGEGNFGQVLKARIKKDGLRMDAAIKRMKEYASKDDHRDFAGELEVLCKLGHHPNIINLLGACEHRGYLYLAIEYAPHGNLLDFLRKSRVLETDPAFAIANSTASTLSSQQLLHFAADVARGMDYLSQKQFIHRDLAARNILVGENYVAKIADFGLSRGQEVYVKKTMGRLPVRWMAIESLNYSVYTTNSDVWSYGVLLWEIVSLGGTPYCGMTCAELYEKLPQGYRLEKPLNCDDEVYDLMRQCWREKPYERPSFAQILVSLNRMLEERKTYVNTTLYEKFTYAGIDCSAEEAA
Chain of Vascular endothelial growth factor receptor 2 (P35968 whole entry): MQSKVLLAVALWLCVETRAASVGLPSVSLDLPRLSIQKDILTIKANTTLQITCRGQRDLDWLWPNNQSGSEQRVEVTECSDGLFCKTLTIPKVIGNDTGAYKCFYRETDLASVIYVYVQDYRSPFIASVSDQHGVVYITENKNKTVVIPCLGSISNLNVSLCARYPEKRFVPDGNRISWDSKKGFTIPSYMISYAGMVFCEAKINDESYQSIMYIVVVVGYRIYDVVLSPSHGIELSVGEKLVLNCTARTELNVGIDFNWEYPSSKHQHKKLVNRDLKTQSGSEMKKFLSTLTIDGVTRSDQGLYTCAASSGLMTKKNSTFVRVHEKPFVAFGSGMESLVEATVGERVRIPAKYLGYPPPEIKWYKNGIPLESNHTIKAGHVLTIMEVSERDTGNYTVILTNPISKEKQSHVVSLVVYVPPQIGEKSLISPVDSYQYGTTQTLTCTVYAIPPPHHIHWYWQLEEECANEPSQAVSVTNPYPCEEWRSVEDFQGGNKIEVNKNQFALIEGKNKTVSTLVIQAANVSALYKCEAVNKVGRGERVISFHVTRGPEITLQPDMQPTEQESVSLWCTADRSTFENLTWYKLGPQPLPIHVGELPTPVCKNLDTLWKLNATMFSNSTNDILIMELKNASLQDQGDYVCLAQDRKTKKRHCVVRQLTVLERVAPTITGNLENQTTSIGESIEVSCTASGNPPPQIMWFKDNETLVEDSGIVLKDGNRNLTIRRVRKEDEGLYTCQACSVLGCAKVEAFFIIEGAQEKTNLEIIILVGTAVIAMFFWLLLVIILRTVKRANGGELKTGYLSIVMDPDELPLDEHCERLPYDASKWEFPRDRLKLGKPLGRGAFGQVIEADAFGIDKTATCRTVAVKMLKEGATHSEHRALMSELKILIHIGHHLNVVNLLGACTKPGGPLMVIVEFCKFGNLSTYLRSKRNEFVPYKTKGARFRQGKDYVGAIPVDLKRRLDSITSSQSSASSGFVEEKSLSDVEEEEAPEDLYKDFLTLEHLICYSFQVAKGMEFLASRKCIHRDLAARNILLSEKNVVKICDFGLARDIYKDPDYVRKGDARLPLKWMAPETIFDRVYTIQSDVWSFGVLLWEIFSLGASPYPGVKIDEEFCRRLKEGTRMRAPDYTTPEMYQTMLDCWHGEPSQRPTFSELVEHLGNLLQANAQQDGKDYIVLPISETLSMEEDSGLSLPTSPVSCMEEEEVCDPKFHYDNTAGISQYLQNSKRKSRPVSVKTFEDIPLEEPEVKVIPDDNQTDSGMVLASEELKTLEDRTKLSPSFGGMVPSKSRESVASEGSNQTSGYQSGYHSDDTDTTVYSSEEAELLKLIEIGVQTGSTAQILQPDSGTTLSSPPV

| SMILES | IC50 (Angiopoietin-1 receptor) | Vd [1] | clearance [2] | IC50 [3] | IC50 [4] | IC50 [5] | half-life [6] | IC50 [8] | ED50 (A-375 [11]) | bioavailability [12] | Activity (A-375 [19]) | inhibition in vivo at 35 mg/kg (Mus musculus [21]) | other results |
| --- | --- | --- | --- | --- | --- | --- | --- | --- | --- | --- | --- | --- | --- |
| CNc1ncc2cc(-c3cc(C(=O)Nc4cccc(C(F)(F)F)c4)ccc3C)ccc2n1 | 0.0018 µM | 3.6 L/kg | 26.7 mL/min/kg | 0.0017 µM | 0.00027 µM | 0.0035 µM | 2.3 h | – | – | – | – | – | – |
| CNc1ncc2cc(-c3c(C)ccc4c(Nc5cc(C(C)(C)C)nn5C)nccc34)ccc2n1 | 0.2 µM | 5.5 L/kg | 30 mL/min/kg | – | 0.021 µM | 0.11 µM | 3.9 h | 0.23 µM | 27 mg/kg | 24% | – | – | inhibition in vivo at 100 mg/kg (Mus musculus [7]): 78%; inhibition in vivo at 30 mg/kg (A-375 [9]): 60%; Activity (A-375 [10]): 45%; inhibition in vivo at 60 mg/kg (Mus musculus [13]): 67%; inhibition in vivo at 30 mg/kg (Mus musculus [14]): 50%; inhibition in vivo at 60 mg/kg (A-375 [15]): 90% |
| Cc1ccc2c(Nc3ccc(Cl)cc3)nccc2c1Nc1ncccc1-c1ccncn1 | 0.52 µM | 2.2 L/kg | 11.2 mL/min/kg | 0.0034 µM | 0.28 µM | > 1.6 µM | 3.5 h | > 25 µM | – | 83% | – | – | – |
| C#Cc1cccc(Nc2nccc3c(Nc4ncccc4-c4cc(NC)ncn4)c(C)ccc23)c1 | 0.0081 µM | 2.2 L/kg | 12.2 mL/min/kg | – | 0.21 µM | 0.45 µM | 2.8 h | 0.42 µM | 13 mg/kg | 76% | 54% | 81% | inhibition in vivo at 20 mg/kg (Mus musculus [16]): 40%; inhibition in vivo at 20 mg/kg (A-375 [17]): 78%; inhibition in vivo at 5 mg/kg (Mus musculus [18]): 5%; inhibition in vivo at 5 mg/kg (A-375 [20]): 18%; AUC at 24 h [22]: 9410 ng·h/mL |
| Cc1ccc(C(=O)Nc2cccc(C(F)(F)F)c2)cc1Nc1ncccc1-c1ccncn1 | – | 1.9 L/kg | 35 mL/min/kg | 0.00046 µM | – | 0.012 µM | 1.3 h | 0.0042 µM | – | 16% | – | – | – |
| CNc1cc(-c2cccnc2Nc2c(C)ccc3c(Nc4ccc(Cl)cc4)nccc23)ncn1 | 0.024 µM | 1.7 L/kg | 4.83 mL/min/kg | 0.056 µM | 0.012 µM | > 1.6 µM | 4.7 h | 0.3 µM | – | 100% | – | – | – |
| Cc1ccc2c(Nc3cccc(C(F)(F)F)c3)nccc2c1Nc1ncccc1-c1ccncn1 | 0.047 µM | 3.7 L/kg | 20 mL/min/kg | 0.017 µM | 0.081 µM | > 1.6 µM | 4.5 h | 0.76 µM | – | 22% | – | – | – |
| CNc1ncc2cc(-c3c(C)ccc4c(Nc5ccc6c(c5)NC(=O)C6(C)C)nccc34)ccc2n1 | > 1 µM | 4.3 L/kg | 10.8 mL/min/kg | 0.021 µM | 0.078 µM | 0.051 µM | 4.8 h | 0.24 µM | 4.7 mg/kg | 55% | 75% | 85% | inhibition in vivo at 20 mg/kg (Mus musculus [16]): 82%; Activity (A-375 [17]): 55%; inhibition in vivo at 10 mg/kg (Mus musculus [23]): 60%; inhibition in vivo at 10 mg/kg (A-375 [24]): 85% |
| CNc1cc(-c2cccnc2Nc2c(C)ccc3c(Nc4ccc5sc(C)nc5c4)nccc23)ncn1 | 0.0058 µM | 0.72 L/kg | 5.5 mL/min/kg | – | 0.023 µM | 0.35 µM | 2.9 h | 0.17 µM | 11 mg/kg | 100% | 24% | 66% | inhibition in vivo at 20 mg/kg (Mus musculus [16]): 52%; inhibition in vivo at 20 mg/kg (A-375 [17]): 85%; inhibition in vivo at 10 mg/kg (Mus musculus [23]): 30%; inhibition in vivo at 10 mg/kg (A-375 [24]): 42%; AUC at 24 h [22]: 12300 ng·h/mL |
| CNc1cc(-c2cccnc2Nc2c(C)ccc3c(Nc4ccc(C#N)cc4)nccc23)ncn1 | 0.4 µM | 0.37 L/kg | 1.83 mL/min/kg | 0.039 µM | 0.15 µM | > 1.6 µM | 2.7 h | > 1 µM | 11.5 mg/kg | 100% | 17% | 78% | inhibition in vivo at 10 mg/kg (Mus musculus [23]): 21%; inhibition in vivo at 17.5 mg/kg (Mus musculus [25]): 63%; inhibition in vivo at 10 mg/kg (A-375 [24]): 50%; AUC at 24 h [22]: 52800 ng·h/mL; inhibition in vivo at 17.5 mg/kg (A-375 [26]): 80% |
| CNc1ncc2cc(-c3c(C)ccc4c(Nc5ccc(Cl)cc5)nccc34)ccc2n1 | > 1 µM | – | – | 0.0054 µM | 0.11 µM | > 1.6 µM | – | > 25 µM | – | – | – | – | – |
